Patent publication US12129488B2, “Production of brown adipocytes” (SOCIETE DES PRODUITS NESTLE S.A., priority 2018, dated 2024)

What was measured:
[1] = system: human brown adipocytes (hiPSC derived BA cells); test: PET-SCAN imaging of labelled glucose in explanted devices from mice implanted with encapsulated human brown adipocytes; format: in vivo; conditions: mice implanted with brown adipocytes and injected with FSK vs not stimulated; three weeks post-implantation
Procedure: Two groups of mice were implanted with human brown adipocytes (hiPSC derived BA cells) produced by the methods of the present invention and encapsulated in a device subcutaneously. In one group, the mice were injected with forskolin (FSK) to stimulate the brown adipocytes. In the other group, the mice implanted with brown adipocytes were not stimulated by FSK. A control group of mice was implanted with an empty device. All groups were assessed after three weeks post-implantation for in vivo PET-SCAN imaging as well as ex vivo PET-SCAN imaging of the explanted device.

[2] = system: human BA cells (hiPSC derived brown adipocytes); test: Calorimetric/respiration measurements in mice implanted with human BA cells after NE stimulation; format: in vivo; conditions: implanted with human BA cells vs empty devices, one week post-implantation
Procedure: Measures of respiration quotient (DeltaVO2) of mice implanted with human BA cells (IBAT) or empty devices (EMPTY) treated with Norepinephrine (NE) for 1 hour. The mice are either surgically depleted for endogenous murine BA tissue (BATr) or treated at thermo-neutrality to inactivate the endogenous murine BA tissue (Therm). Calorimetric analyses were performed on group of mice implanted with encapsulated human brown adipocytes or empty devices. One group of mice was depleted of endogenous murine BA tissue by surgery and another group was maintained at thermoneutrality for inactivation of the endogenous murine BA tissue. The two groups were implanted with either human BA cells (hiPSC derived brown adipocytes) or empty devices. After one week post-implantation, each group of mice was stimulated with Norepinephrine (NE) (BA stimulation) to assess uncoupled respiration increase. The four sub-groups were analysed for calorimetry measurements as a readout of the respiration index induced by human brown adipocytes.

paraxial mesoderm cells = test: Brown adipocyte differentiation of dissociated paraxial mesoderm cells in BAD1/BAD2 medium; format: cell-based, human; conditions: SB431542 included in BAD1 medium, 2D culture of dissociated paraxial mesoderm cells
Procedure: Proceeding from monolayer of pluripotent stem cells (PSC) to spherical culture (Sph) to primitive streak (PS) to paraxial mesoderm (PM). Cells are then dissociated and cultured in 2D in specific BAD1 medium that contains TGFβ signalling inhibitor, SB431542 which is an activin inhibitor. […] In a second step, cells are cultured in BAD2 medium allowing TGFβ signalling to be active as SB431542 is removed.
(§1) Brown adipocyte (BA) differentiation was accomplished using two sequential media formulations designated BAD1 and BAD2. BAs were derived by first dissociating the PM spheres into single-cell suspension. Briefly, PM spheres were removed from the suspension plates and allowed to gravity sediment in a conical tube. The medium was aspirated carefully and the spheres gently washed once with excess DPBS without calcium or magnesium. The spheres were allowed to settle and the DPBS aspirated. The spheres were resuspended in 5 mL of RT Accumax® (Innovative Cell Technologies, San Diego, CA) and placed on a single speed rotating mixer for 20-30 minutes until a single-cell suspension was achieved. The cells were subsequently filtered through a 100 μm filter (ThermoFisher, Waltham, MA) into a 50 mL conical tube, washed with DPBS and centrifuged at 200 g for 4 minutes at RT; the resulting supernatant was aspirated and the cells resuspended in BAD1 medium for counting using a haemocytometer. […]

UCP1 = UCP1 expression analysis (qPCR), long term versus short term SB431542 exposure during BA differentiation; format: cell-based, human; conditions: continued use of SB431542 instead of removal in BAD2 medium
Procedure: UCP1 expression analysis between long term (+SB) or short term (−SB) SB431542 exposure. Long term SB exposure includes SB431542 in the medium during the entire BA differentiation beginning immediately after plating dissociated paraxial mesoderm cells. Short term SB exposure includes SB431542 in the medium during only the first 8 days beginning immediately after plating dissociated paraxial mesoderm cells. Those samples marked “+FSK” received 10 μM Forskolin for 4 hours. Day numbers are the number of days after paraxial mesoderm differentiation. All samples are relative to iPSC using 18S rRNA as the endogenous control.
as §1, with “achieved.” for “achieved. The cells were subsequently filtered through a 100 μm filter (ThermoFisher, Waltham, MA) into a 50 mL conical tube, washed with DPBS and centrifuged at 200 g for 4 minutes at RT; the resulting supernatant was aspirated and the cells resuspended in BAD1 medium for counting using a haemocytometer.”

**Q.** `C=C[C@@]1(C)CC(=O)[C@]2(O)[C@@]3(C)[C@@H](O)CCC(C)(C)[C@@H]3[C@H](O)[C@H](OC(C)=O)[C@@]2(C)O1` [FSK, forskolin] was tested. Which “signal of labelled glucose, PET-SCAN imaging ex vivo” value [1] did it give?
**A.** increased signal of labelled glucose

**Q.** How did the “respiration index (calorimetry)” value ([2]; mice at thermoneutrality) turn out when `NC[C@H](O)c1ccc(O)c(O)c1` [NE, Norepinephrine] was run?
**A.** slightly but not significantly improved

**Q.** And the “respiration index (calorimetry)” value ([2]; mice surgically depleted of endogenous murine BA tissue)?
**A.** significant increased respiration index

**Q.** `NC(=O)c1ccc(-c2nc(-c3ccc4c(c3)OCO4)c(-c3ccccn3)[nH]2)cc1` [SB431542] was tested. Which “appearance of vascular endothelium and cardiac myocyte development from contaminating lateral plate mesoderm” value (paraxial mesoderm cells) did it give?
**A.** reduces appearance of vascular endothelium and cardiac myocyte development

**Q.** And the “kinetics of differentiation and UCP1 induction and expression” value (UCP1)?
**A.** retards proper kinetics and perturbs proper UCP1 induction and expression
